Where “and” joins values, the source holds several entries; their conditions need not be identical. Equal values may be shown once. Read-outs that look alike come from different tables or passages of the source.
Legend:
[1] = test system: rat myocardial infarct model; format: in vivo
[2] = biological target: norepinephrine transporter (Rattus norvegicus, UniProt Q63380); format: cell-based
[3] = animal group that received labetalol

norepinephrine transporter, sequence (Q63380 1-617): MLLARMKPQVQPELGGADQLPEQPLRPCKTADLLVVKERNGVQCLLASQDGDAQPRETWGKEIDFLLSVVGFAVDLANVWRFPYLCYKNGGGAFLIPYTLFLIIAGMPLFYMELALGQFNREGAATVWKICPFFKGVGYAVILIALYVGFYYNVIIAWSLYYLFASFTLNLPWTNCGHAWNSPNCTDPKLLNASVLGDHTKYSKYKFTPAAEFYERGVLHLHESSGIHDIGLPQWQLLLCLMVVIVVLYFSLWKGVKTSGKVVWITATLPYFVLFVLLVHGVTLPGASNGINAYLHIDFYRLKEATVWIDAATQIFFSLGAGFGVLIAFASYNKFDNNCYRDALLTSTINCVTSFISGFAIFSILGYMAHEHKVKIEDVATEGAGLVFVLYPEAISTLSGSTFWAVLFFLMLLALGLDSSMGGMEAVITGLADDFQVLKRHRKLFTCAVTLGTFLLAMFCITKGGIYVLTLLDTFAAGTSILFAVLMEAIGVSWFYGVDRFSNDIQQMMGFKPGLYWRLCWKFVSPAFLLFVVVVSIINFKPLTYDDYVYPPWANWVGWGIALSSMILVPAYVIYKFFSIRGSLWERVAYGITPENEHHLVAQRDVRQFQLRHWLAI

CC(CCc1ccccc1)NCC(O)c1ccc(O)c(C(N)=O)c1 (stereo not shown) [Labetalol, labetalol]
Infarct Size ([1]; N = 6, DPDPE 200 ng/kg iv 30 min before occlusion, labetalol 2 mg/kg iv): 16.2 ± 1.7 % of LV
change in heart rate [1, 3]: mild increase
change in mean blood pressure compared to the other groups [1, 3]: small reduction
HR ([1]; rat, in vivo): 213 ± 1 bpm and 223 ± 1 bpm and 244 ± 2 bpm and 235 ± 2 bpm
Mean BP ([1]; rat, in vivo): 125 ± 2 mmHg and 100 ± 2 mmHg and 78 ± 4 mmHg and 81 ± 4 mmHg

[D-Pen^25]-enkephalin [DPDPE]
HR ([1]; rat, in vivo): 215 ± 1 bpm and 218 ± 1 bpm and 232 ± 1 bpm and 216 ± 1 bpm
Infarct Size ([1]; rat, in vivo): 6.6 ± 1.4 % of LV
Mean BP ([1]; rat, in vivo): 125 ± 1 mmHg and 116 ± 1 mmHg and 89 ± 2 mmHg and 96 ± 1 mmHg
infarct-size-limiting effect in rats pretreated with labetalol ([1]; rat, in vivo): nearly abolished
reduction of LV infarct size compared to control ([1]; rat, in vivo, iv): 53%

NC[C@H](O)c1ccc(O)c(O)c1 [norepinephrine]
inhibition of [3H] norepinephrine uptake [2]: 20%
reduction of [3H]norepinephrine uptake [2]: 20±5%

CNCCC(Oc1ccccc1OC)c1ccccc1 (stereo not shown) [nisoxetine]
reduction of [3H]norepinephrine uptake [2]: 36±4%

From patent publication US20110112032A1, “Regulation of Brain Natriuretic Peptide and Catecholamines for the Treatment of Cardiovascular Diseases” (priority 2005, published 2011)
